Experimental data as given in patent US8318980B2, “UV absorbing compounds” (Fujifilm Manufacturing Europe B.V., priority 2007, dated 2012).
“Also recorded” adds a separate entry of the source.

Columns and labels:
[1] = Heat stability test (UV-absorption left after storage at 50° C.); assay type: physicochemical; settings: for Heat stability: UV-absorption left after 5 days: 5 days at 50° C. in the dark; for Heat stability: UV-absorption left after 5 days / Heat stability: UV-absorption left after 50 days / Heat stability: UV-absorption left after 100 days: 1.5% in C12-C15 alkyl benzoate oil (compound 12: 5% in water), 375 nm versus sample stored at room temperature; for Heat stability: UV-absorption left after 50 days: 50 days at 50° C. in the dark; for Heat stability: UV-absorption left after 100 days: 100 days at 50° C. in the dark; for heat stability, in words: in C12-C15 alkylbenzoate oils
Procedure: Hereto, 1.5% solutions were prepared of compounds 4-11 and 13 in C12-C15 alkyl benzoate oil. […] The solutions were stored in closed vessels at 50° C. in the dark. After 5, 50 and 100 days, the UV-absorption of a diluted sample was measured at 375 nm comparative to a corresponding sample stored at room temperature. The UV-absorption left after each time span is shown in Table 4 indicated by + and − signs. ++ means >95% left, +− implies between 50-95% left, − indicates <50% left.

[2] = Solubility test in C12-C15 alkyl benzoate oil (Finsolv TN); assay type: physicochemical; design: key to Solubility in Finsolv TN, dissolved amount (m/m %) 1% / Solubility in Finsolv TN, dissolved amount (m/m %) 5% / Solubility in Finsolv TN, dissolved amount (m/m %) 20% / Solubility in Finsolv TN, dissolved amount (m/m %) 50% / Solubility in Finsolv TN, dissolved amount (m/m %) 80% / Solubility in Finsolv TN, dissolved amount (m/m %) 90%: +=well-soluble; −=not soluble; settings: dissolved at 80° C. for 1 hour, cooled to room temperature, inspected after 24 hours; for Solubility in Finsolv TN, dissolved amount (m/m %) 1%: 1% m/m; for Solubility in Finsolv TN, dissolved amount (m/m %) 5%: 5% m/m; for Solubility in Finsolv TN, dissolved amount (m/m %) 20%: 20% m/m; for Solubility in Finsolv TN, dissolved amount (m/m %) 50%: 50% m/m; for Solubility in Finsolv TN, dissolved amount (m/m %) 80%: 80% m/m; for Solubility in Finsolv TN, dissolved amount (m/m %) 90%: 90% m/m
Procedure: The aminobutadiene compounds according to the present invention have an optimised solubility for cosmetic oils. […] In Table 3, the solubility of compounds 4, 12 and 13 is shown at various concentrations (+=well-soluble; -=not soluble). The compounds were dissolved at 80° C. while stirring for 1 hour and cooled down to room temperature. After 24 hours the solutions were inspected for any precipitates or crystals.

human skin = assay: Skin penetration test in diffusion cell; assay type: in vitro ADME; settings: for penetration into or through the skin (UV analysis of DMSO skin extracts), in words / penetration through the skin (UV-analysis of collected receptor fluids), in words: human skin, diffusion cell; for penetration through the skin (UV-analysis of collected receptor fluids), in words: 20 hrs
Procedure: The skin-penetration was evaluated based on the same method described on page 21 of WO2006/009451. FIG. 2 is a drawing of the skin penetration test equipment, wherein (1) indicates the position of the test sample (donor compound), (2) an ⅛″ OD× 1/32″ wall tubing, (3) the receptor input, (4) the receptor compartment and (5) the compound and receptor output that is subjected to analysis.
A compound 3 donor solution was prepared by dissolving 30 mg of compound 3 in 4 ml EtOH and 7 ml phosphate buffer (PBS) at pH 7.4. Compound 4, 6, 7, 8 and 9 donor solutions were prepared by dispersing 80 mg of these compounds in olive oil.
For each compound 4 pieces of human skin (Ø ca 3 cm, mostly epidermis) were applied on a dialysis membrane and mounted into the diffusion cell shown in the FIG. 2. The figure is a schematic drawing of the diffusion cell, wherein is indicated 1: donor compound, 2: receptor compartment, 3: receptor input, 4: compound and receptor output for analysis, 5: ⅛″ OD× 1/32″ wall tubing. The cells were mounted on a temperature controlling and stirring device. The temperature was kept at 37°. The receptor fluid was a PBS buffer. The receptor compartment was stirred magnetically. 400 μl of the donor solution was applied. The receptor fluid flowing at a speed of 1 ml/hr was collected into glass tubes (1 tube/2 hrs). After 20 hrs the penetration experiment was terminated.
Furthermore the skin parts were extracted with DMSO to dissolve any UV-absorber in the epidermis. The extracts were analysed by UV.

SMILES	Heat stability: UV-absorption left after 5 days [1]	Heat stability: UV-absorption left after 50 days [1]	Heat stability: UV-absorption left after 100 days [1]	Solubility in Finsolv TN, dissolved amount (m/m %) 1% [2]	Solubility in Finsolv TN, dissolved amount (m/m %) 5% [2]	Solubility in Finsolv TN, dissolved amount (m/m %) 20% [2]	Solubility in Finsolv TN, dissolved amount (m/m %) 50% [2]	Solubility in Finsolv TN, dissolved amount (m/m %) 80% [2]	Solubility in Finsolv TN, dissolved amount (m/m %) 90% [2]	heat stability, in words [1]	Presence in receptor fluid after 6 h (human skin; human skin (mostly epidermis), 37°, PBS receptor fluid, compound 3 donor in EtOH/PBS pH 7.4, others dispersed in olive oil, UV-analysis)	penetration into or through the skin (UV analysis of DMSO skin extracts), in words (human skin)	penetration through the skin (UV-analysis of collected receptor fluids), in words (human skin)	Presence in skin extract (human skin; skin parts extracted with DMSO after the penetration experiment, UV analysis)
CCCCCCCCOC(=O)C(=CC=CNCCCN(CCCCN(CCCNC=CC=C(C(=O)OCCCCCCCC)S(=O)(=O)c1ccccc1)CCCNC=CC=C(C(=O)OCCCCCCCC)S(=O)(=O)c1ccccc1)CCCNC=CC=C(C(=O)OCCCCCCCC)S(=O)(=O)c1ccccc1)S(=O)(=O)c1ccccc1 [Compound 11, reference compound]	++ (++ means >95% left)	+− (+− implies between 50-95% left)	− (− indicates <50% left)											
CCCCCCCCOC(=O)/C(=C/C=C/NCCCCCCN(/C=C\C=C(/C(=O)OCCCCCCCC)S(=O)(=O)c1ccccc1)CCCCCCN/C=C/C=C(\C(=O)OCCCCCCCC)S(=O)(=O)c1ccccc1)S(=O)(=O)c1ccccc1 [Compound 5, reference compound]	++ (++ means >95% left)	+− (+− implies between 50-95% left)	+− (+− implies between 50-95% left)											
CC(C)OC(=O)C(=CC=CN(CCCCCCN(C=CC=C(C(=O)OC(C)C)S(=O)(=O)c1ccccc1)Cc1ccccc1)CCCCCCN(C=CC=C(C(=O)OC(C)C)S(=O)(=O)c1ccccc1)Cc1ccccc1)S(=O)(=O)c1ccccc1 [Compound 17]	++ (++ means >95% left)	++ (++ means >95% left)	++ (++ means >95% left)	−	−	−	−	−	−					
CCCCCCCCOC(=O)C(=CC=CN(CCCC)CCN(C=CC=C(C(=O)OCCCCCCCC)S(=O)(=O)c1ccccc1)CCN(C=CC=C(C(=O)OCCCCCCCC)S(=O)(=O)c1ccccc1)CCCC)S(=O)(=O)c1ccccc1 [Compound 13]	++ (++ means >95% left)	++ (++ means >95% left)	++ (++ means >95% left)	+	+	+	−	−	−	very heat stable; also recorded: good heat stability				
CCCCCCCCOC(=O)C(=CC=CN(C(C)=O)c1ccccc1)S(=O)(=O)c1ccccc1 [aminobutadiene 3, reference compound]											+ (a ‘+’ means that more than 50% of the substance penetrates the skin)	observed inside the skin sample	penetration	+ (a ‘+’ means that more than 50% of the substance penetrates the skin)
CCCCC(CC)COC(=O)C(=CC=CN(CCCCCCN(C=CC=C(C(=O)OCC(CC)CCCC)S(=O)(=O)c1ccccc1)Cc1ccccc1)CCCCCCN(C=CC=C(C(=O)OCC(CC)CCCC)S(=O)(=O)c1ccccc1)Cc1ccccc1)S(=O)(=O)c1ccccc1 (centres unmarked) [Compound 18]	++ (++ means >95% left)	++ (++ means >95% left)	++ (++ means >95% left)	+	−	−	−	−	−					
CCCCCCCCOC(=O)C(=CC=CN(CCCN(CCCCN(CCCN(C=CC=C(C(=O)OCCCCCCCC)S(=O)(=O)c1ccccc1)Cc1ccccc1)CCCN(C=CC=C(C(=O)OCCCCCCCC)S(=O)(=O)c1ccccc1)Cc1ccccc1)CCCN(C=CC=C(C(=O)OCCCCCCCC)S(=O)(=O)c1ccccc1)Cc1ccccc1)Cc1ccccc1)S(=O)(=O)c1ccccc1 [Compound 8]	++ (++ means >95% left)	++ (++ means >95% left)	++ (++ means >95% left)							very heat stable		do not penetrate into or through the skin	no penetration	
CCCCCCCCOC(=O)C(=CC=CN(CCN(CCN(C=CC=C(C(=O)OCCCCCCCC)S(=O)(=O)c1ccccc1)Cc1ccccc1)CCN(C=CC=C(C(=O)OCCCCCCCC)S(=O)(=O)c1ccccc1)Cc1ccccc1)Cc1ccccc1)S(=O)(=O)c1ccccc1 [Compound 7]	++ (++ means >95% left)	++ (++ means >95% left)	++ (++ means >95% left)							very heat stable		do not penetrate into or through the skin	no penetration	
CCCCCCCCCCCCCCCCCCOC(=O)C(=CC=CN(CCCCCCN(C=CC=C(C(=O)OCCCCCCCCCCCCCCCCCC)S(=O)(=O)c1ccccc1)Cc1ccccc1)CCCCCCN(C=CC=C(C(=O)OCCCCCCCCCCCCCCCCCC)S(=O)(=O)c1ccccc1)Cc1ccccc1)S(=O)(=O)c1ccccc1 [Compound 19]	++ (++ means >95% left)	++ (++ means >95% left)	++ (++ means >95% left)	+	+	+	+	+	+					
CCCCCCCCOC(=O)C(=CC=CNCCN(CCNC=CC=C(C(=O)OCCCCCCCC)S(=O)(=O)c1ccccc1)CCNC=CC=C(C(=O)OCCCCCCCC)S(=O)(=O)c1ccccc1)S(=O)(=O)c1ccccc1 [Compound 10, reference compound]	++ (++ means >95% left)	+− (+− implies between 50-95% left)	− (− indicates <50% left)											
